Read-outs that look alike come from different tables or passages of the source.
Tests used:
IRAK4 = IRAK4 (Homo sapiens (Human), UniProt Q9NWZ3); assay: IRAK4 Inhibition Assay; type: biochemical; details: ATP 500 μM; IRAK4 0.6 nM; 60 min at room temperature
Experimental: The assays were performed in U-bottom 384-well plates. […] The reaction was initiated by the combination of IRAK4 with substrates and test compounds. The reaction was incubated at room temperature for 60 min. and terminated by adding 45 μL of 35 mM EDTA to each sample. The reaction mixture was analyzed on the Caliper LABCHIP® 3000 (Caliper, Hopkinton, Mass.) by electrophoretic separation of the fluorescent substrate and phosphorylated product.

[1] = tested on: TLR2 induced IL-6 in peripheral blood mononuclear cells (PBMCs); assay: PBMC TLR2 Induced IL-6 Assay; type: cell-based, human; details: human PBMCs, 10 μg/ml lipoteichoic acid for 5 hours, IL-6 by ELISA, value without asterisk, read-out: Cell IC50
Experimental: Peripheral blood mononuclear cells (PBMCs) were isolated from human blood containing the anti-coagulant EDTA (2.5 mM) by centrifugation over a FICOLL® gradient. PBMCs (250000 cells/well) were cultured in assay media (RPMI with 10% heat inactivated FCS) with compounds for 30 minutes at 37° C. in a 5% CO2 incubator. Following pretreatment with compounds, cells were stimulated for 5 hours with 10 μg/ml lipoteichoic acid (Invivogen, San Diego, Calif.), a TLR2 agonist. At the end of the culture, plates were centrifuged at 1800 rpm for 10 minutes to pellet the cells. Supernatants were harvested and analyzed for IL-6 levels by ELISA (BD Biosciences, San Jose, Calif.). Inhibition was calculated as either an IC50 or EC50. EC50 determinations are indicated with an asterisk.

Sequence of IRAK4 (Q9NWZ3 whole entry, species assumed): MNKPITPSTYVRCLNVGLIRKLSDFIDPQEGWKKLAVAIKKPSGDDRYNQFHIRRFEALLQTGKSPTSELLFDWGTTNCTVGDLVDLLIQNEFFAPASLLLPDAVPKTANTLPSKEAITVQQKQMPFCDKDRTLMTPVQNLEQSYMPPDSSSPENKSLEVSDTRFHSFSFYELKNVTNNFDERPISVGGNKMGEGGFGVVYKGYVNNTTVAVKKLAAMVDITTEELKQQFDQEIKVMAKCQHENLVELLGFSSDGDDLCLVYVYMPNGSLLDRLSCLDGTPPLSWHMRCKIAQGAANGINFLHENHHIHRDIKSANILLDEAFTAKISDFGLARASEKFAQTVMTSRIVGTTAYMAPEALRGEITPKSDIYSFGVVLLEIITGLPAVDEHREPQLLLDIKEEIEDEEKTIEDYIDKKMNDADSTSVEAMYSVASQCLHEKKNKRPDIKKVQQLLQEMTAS

Compound | IC50 (IRAK4) [nM] | IC50 ([1]; Homo sapiens, PBMC, 5 h) [nM] | IC50 [1] [nM]
CC(C)(O)[C@H](F)CNC(=O)c1cnc(Nc2ccc3ncsc3c2)cc1NC1CCOCC1 [Example 52] | 2.7 | 116 | –
CC(C)(O)[C@H](F)CNC(=O)c1cnc(Nc2ccc3ncsc3c2)cc1NC1CCCOC1 (some centres unmarked) [Example 53] | 5.4 | 230 | –
CC(C)(O)[C@H](F)CNC(=O)c1cnc(Nc2ccc3ncsc3c2)cc1NC1CCCOC1 (some centres unmarked) [Example 54] | 3.6 | – | 258
CC(C)Nc1cc(Nc2ccc3nccnc3c2)ncc1C(=O)NC[C@@H](F)C(C)(C)O [Example 55] | 5.9 | 349 | –
CC(C)(O)[C@H](F)CNC(=O)c1cnc(Nc2ccc3ncsc3c2)cc1Nc1cccc(CO)c1 [Example 57] | 5.2 | 314 | –
CC(C)(O)[C@H](F)CNC(=O)c1cnc(Nc2ccc3ncccc3c2)cc1NC1CC1 [Example 58] | 7 | 545 | –
CC(C)(O)[C@H](F)CNC(=O)c1cnc(Nc2ccc3ncsc3c2)cc1Nc1cccc(CCO)c1 [Example 59] | 6 | 99 | –
CC(C)(O)[C@H](F)CNC(=O)c1cnc(Nc2ccc3ncsc3c2)cc1N[C@H]1CC[C@H](N)CC1 [Example 61] | 7 | 257 | –
CC(C)(O)[C@H](F)CNC(=O)c1cnc(Nc2ccc3ncsc3c2)cc1N[C@H](CO)c1ccccc1 [Example 63] | 8.6 | 632 | –
CC(C)(O)C1CC(Nc2cc(Nc3ccc4ncsc4c3)ncc2C(=O)NC[C@@H](F)C(C)(C)O)C1 (some centres unmarked) [Example 64] | 5.2 | 440 | –
CC(C)(O)[C@H](F)CNC(=O)c1cnc(Nc2ccc3ncsc3c2)cc1N[C@@H](c1cc(F)cc(F)c1)[C@H](O)CO [Example 65] | 3.9 | 170 | –
CC(C)(O)[C@H](F)CNC(=O)c1cnc(Nc2ccc3ncsc3c2)cc1N[C@H]1CCC(CCO)C1 (some centres unmarked) [Example 66] | 2.3 | – | 58
CC(C)(O)[C@H](F)CNC(=O)c1cnc(Nc2ccc3ncsc3c2)cc1N[C@H]1CCC(CCO)C1 (some centres unmarked) [Example 67] | 6.8 | – | 248
CC(C)(O)[C@H](F)CNC(=O)c1cnc(Nc2ccc3ncsc3c2)cc1N[C@H]1CCC(CCO)C1 (some centres unmarked) [Example 68] | 4.7 | – | 231
CC(C)(O)[C@H](F)CNC(=O)c1cnc(Nc2ccc3ncsc3c2)cc1NC1CC(CO)C1 (some centres unmarked) [Example 69] | 3.4 | 365 | –
CCOC(=O)C1CC(Nc2cc(Nc3ccc4ncsc4c3)ncc2C(=O)NC[C@@H](F)C(C)(C)O)C1 (some centres unmarked) [Example 70] | 8.7 | 530 | –
CC(C)(O)[C@H](F)CNC(=O)c1cnc(Nc2ccc3nccnc3c2)cc1NC1CCCOC1 (some centres unmarked) [Example 71] | 13.8 | 415 | –
CC(C)(O)[C@H](F)CNC(=O)c1cnc(Nc2ccc3ncncc3c2)cc1NC1CCC1 [Example 73] | 2.7 | 327 | –
CC(C)(O)[C@H](F)CNC(=O)c1cnc(Nc2ccc3nc(N)ccc3c2)cc1NC1CC1 [Example 75] | 18.9 | 710 | –
CNC(=O)c1cc(F)c(Nc2cc(Nc3ccc4ncsc4c3)ncc2C(=O)NC[C@@H](F)C(C)(C)O)cc1F [Example 78] | 8.6 | 282 | –
CC(C)(O)[C@H](F)CNC(=O)c1cnc(Nc2ccc3cnccc3n2)cc1NC1CC1 [Example 79] | 5.6 | 48 | –
CC(C)(O)[C@H](F)CNC(=O)c1cnc(Nc2ccc3nccnc3c2)cc1NC1CC1 [Example 82] | 8 | 366 | –
CC(C)(C)Nc1cc(Nc2ccc3ncsc3c2)ncc1C(=O)NC[C@@H](F)C(C)(C)O [Example 83] | 11.5 | 133 | –

Compound | IC50 (IRAK4) [nM] | IC50 ([1]; Homo sapiens, PBMC, 5 h) [nM] | IC50 [1] [nM]
CC(C)(O)[C@H](F)CNC(=O)c1cnc(Nc2ccc3nccn3n2)cc1NC1CC1 [Example 85] | 5.1 | 195 | –
Cc1cc(O)ccc1Nc1cc(Nc2ccc3ncsc3c2)ncc1C(=O)NC[C@@H](F)C(C)(C)O [Example 86] | 11.4 | 281 | –
CC(C)(O)[C@H](F)CNC(=O)c1cnc(Nc2ccc3ncsc3c2)cc1NC1CCCCCC1 [Example 87] | 5.3 | 271 | –
CC(C)(O)[C@H](F)CNC(=O)c1cnc(Nc2ccc3nccnc3c2)cc1NC1CCCCCC1 [Example 88] | 9 | 457 | –
CC(C)(O)[C@H](F)CNC(=O)c1cnc(Nc2ccc3ncsc3c2)cc1NC1CC2CCC1C2 (some centres unmarked) [Example 89] | 2.6 | 32 | –
CC(Nc1cc(Nc2ccc3ncsc3c2)ncc1C(=O)NC[C@@H](F)C(C)(C)O)C(F)(F)F (some centres unmarked) [Example 91] | 3.7 | 64 | –
CC(C)(O)[C@H](F)CNC(=O)c1cnc(Nc2ccn3nccc3c2)cc1NC1CC1 [Example 92] | 4.8 | 177 | –
CC(C)(O)[C@H](F)CNC(=O)c1cnc(Nc2ccc3ncsc3c2)cc1NCC1CCCO1 (some centres unmarked) [Example 93] | 16 | 619 | –
CC(C)(O)[C@H](F)CNC(=O)c1cnc(Nc2ccc3ncsc3c2)cc1NCC1CCCO1 (some centres unmarked) [Example 94] | 13 | – | 339
CC(C)(O)[C@H](F)CNC(=O)c1cnc(Nc2ccc3nccnc3c2)cc1NC1CC2CCC1C2 (some centres unmarked) [Example 95] | 1.9 | 58 | –
CCNc1cc(Nc2ccc3ncsc3c2)ncc1C(=O)NC[C@@H](F)C(C)(C)O [Example 96] | 4.3 | 170 | –
CC(C)(O)[C@H](F)CNC(=O)c1cnc(Nc2ccc3nccnc3n2)cc1NC1CC1 [Example 97] | 16.4 | 302 | –
CC(C)(O)[C@H](F)CNC(=O)c1cnc(Nc2ccc3nonc3c2)cc1NC1CCC1 [Example 98] | 7.2 | 165 | –
CC(C)(O)[C@H](F)CNC(=O)c1cnc(Nc2ccc3nonc3c2)cc1NCC(F)(F)F [Example 100] | 21.7 | 830 | –
CC(C)(O)[C@H](F)CNC(=O)c1cnc(Nc2ccc3ncsc3c2)cc1NC(C1CC1)C1CC1 [Example 101] | 54.8 | 570 | –
CC(C)(O)[C@H](F)CNC(=O)c1cnc(Nc2ccc3nsnc3c2)cc1N[C@@H](c1ccccc1)[C@H](O)CO [Example 102] | 2.9 | 312 | –
CC(C)(C)CNc1cc(Nc2ccc3nccnc3c2)ncc1C(=O)NC[C@@H](F)C(C)(C)O [Example 103] | 13.4 | 411 | –
CC1CCCC1Nc1cc(Nc2ccc3ncsc3c2)ncc1C(=O)NC[C@@H](F)C(C)(C)O (some centres unmarked) [Example 104] | 2.5 | 350 | –
CC1CCCC1Nc1cc(Nc2ccc3ncsc3c2)ncc1C(=O)NC[C@@H](F)C(C)(C)O (some centres unmarked) [Example 105] | 1.9 | – | 321
CC(Nc1cc(Nc2ccc3ncsc3c2)ncc1C(=O)NC[C@@H](F)C(C)(C)O)C1CC1 (some centres unmarked) [Example 106] | 58 | 570 | –
CC(C)(O)[C@H](F)CNC(=O)c1cnc(Nc2ccc3ncsc3c2)cc1NCC(F)(F)C(C)(C)O [Example 107] | 3.9 | 174 | –
CC(C)(O)[C@H](F)CNC(=O)c1cnc(Nc2ccc3ncsc3c2)cc1NC1C2CCCC21 (some centres unmarked) [Example 108] | 2.3 | 507 | –
CC(C)(O)[C@H](F)CNC(=O)c1cnc(Nc2ccc3ncsc3c2)cc1NC1C2CCCC21 (some centres unmarked) [Example 109] | 5.8 | – | 454
